# Residues, ends and D or L forms follow the SMILES beside them. *: point of attachment. Cbz = O=C(OCc1ccccc1)*
# System: DISC1, neural progenitors derived from patients carrying a 4-bp deletion in the DISC1 gene
# Assay: DISC1 protein level in patient iPS-derived neural progenitors (DISC1 frameshift, 4-bp deletion), western blot
# Type: cell-based, human
# Source text: All iPS derived neural progenitors were provided by Pfizer Neuroscience (Cambridge, MA, USA). The iPS cell lines D2 and D3 and family control cell line C1 were generated using a non-integrated approach by Dr Hongjun Song at Johns Hopkins University and cultured as described previously.[8] The Detroit iPS cell line was generated by Dr S. Engle at Pfizer Neuroscience. Detroit 551 fibroblasts were obtained from ATCC (CCL-110) and maintained in Knockout DMEM (Life Technologies 10829-018), 15% FBS (Life Technologies), 1x Non-essential amino acids (Life Technologies 11140-050), 2 mM L-glutamine (Life Technologies 25030-081), 1x Gentamicin (Life Technologies 15710-072), 0.1 mM β-mercaptoethanol (Sigma M-7522). The cells were reprogrammed with individual lentiviruses expressing c-MYC, KLF4, SOX2, OCT3/4, NANOG, and LIN28. One colony, Detroit 551-3, with ES-like morphology, high expression of pluripotency markers (for example, OCT3/4, TRA-1-60, TRA-1-81, SSEA4), a normal karyotype, […] the ability to form all three germ layers in a teratoma assay was used in all subsequent experiments. […]
structure (smiles),measurement,setting,value
CC(C)C[C@@H](C=O)NC(=O)[C@H](CC(C)C)NC(=O)[C@H](CC(C)C)NC(=O)OCc1ccccc1 [MG132] (Cbz-Leu-Leu-Leu-aldehyde),"DISC1 protein level in NPs from D2-1 (patient) iPS cells, proteasomal inhibition","MG132 10 µM, day 18, up to 3 hours, n=2, western blot",stabilization of DISC1 protein levels within first 30 min up to 3 hours
same,DISC1 level in patient-derived NP cells after MG132,"MG132, Supplementary Figure 10D",could be enhanced by MG132 treatment
